The target of test [1] is T1, Melatonin receptor type 1B (Homo sapiens, UniProt P49286).
T1 sequence (P49286 whole entry): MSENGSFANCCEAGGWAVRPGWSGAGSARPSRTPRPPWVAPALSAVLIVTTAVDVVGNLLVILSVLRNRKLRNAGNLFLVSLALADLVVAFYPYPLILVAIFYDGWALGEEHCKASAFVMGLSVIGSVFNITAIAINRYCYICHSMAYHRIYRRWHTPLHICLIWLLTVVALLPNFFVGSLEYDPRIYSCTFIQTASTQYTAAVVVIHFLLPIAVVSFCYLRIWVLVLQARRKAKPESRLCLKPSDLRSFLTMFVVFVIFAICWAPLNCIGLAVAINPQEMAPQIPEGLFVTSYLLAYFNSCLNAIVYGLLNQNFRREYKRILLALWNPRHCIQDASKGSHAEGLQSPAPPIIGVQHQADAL
Nature of the test: Intrinsic activity at human MT2 receptor expressed in CHO cell membranes after 1 hr by [35S]GTPgammaS binding assay. Format: functional. A general note: GTPγS resists hydrolysis and so accumulates on activated G proteins.

Test [2] has as its target T1, Melatonin receptor type 1B. Nature of the test: Displacement of 2-[125I]iodomelatonin from human MT2 receptor expressed in HEK or CHO cell membranes after 120 mins.
In test [3] the target is T2, Melatonin receptor type 1A (Homo sapiens, UniProt P48039). Put plainly: Displacement of 2-[125I]iodomelatonin from human MT1 receptor expressed in HEK or CHO cell membranes after 120 mins.
For test [4], the target named is T2, Melatonin receptor type 1A. Nature of the test: Intrinsic activity at human MT1 receptor expressed in CHO cell membranes after 1 hr by [35S]GTPgammaS binding assay. Format: functional.
Test [5] is filed under the species Homo sapiens. Put plainly: Selectivity ratio of Ki for human MT1 receptor to Ki for human MT2 receptor.

T2 sequence (P48039 whole entry): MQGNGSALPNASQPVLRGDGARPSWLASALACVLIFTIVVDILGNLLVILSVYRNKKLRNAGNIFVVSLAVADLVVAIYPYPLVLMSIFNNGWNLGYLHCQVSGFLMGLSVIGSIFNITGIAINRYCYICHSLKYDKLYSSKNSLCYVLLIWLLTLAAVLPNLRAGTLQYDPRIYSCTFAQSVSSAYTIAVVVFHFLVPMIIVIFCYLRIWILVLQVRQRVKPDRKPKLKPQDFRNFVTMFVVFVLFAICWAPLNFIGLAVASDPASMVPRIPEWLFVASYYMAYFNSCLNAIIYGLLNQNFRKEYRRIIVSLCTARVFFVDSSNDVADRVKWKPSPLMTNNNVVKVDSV

In general, EC50 refers to the concentration giving half of the maximal effect. The low end stands for a more potent agent, the high end for a less potent agent. By Ki is commonly meant the dissociation constant of the complex between target and ligand, obtained from inhibition or displacement. Turning to `COC(=O)NCCc1cccc2ccc(OC)nc12`, the EC50 in test [1] was 0.4 nM; in test [4], greater than 1000 nM. In addition, the Ki in test [2] was found to be 0.3 nM; in test [3], 7 nM.

As to `CCNC(=O)NCCc1cccc2ncc(OC)cc12`, the Ki in test [2] came to 73 nM; in test [3], 575 nM.

For the molecule `COc1cnc2cccc(CCNC(=O)CF)c2c1`, the Ki in test [2] came out at 6 nM; in test [3] it was 29 nM.

For the molecule `CCNC(=S)NCCc1cccc2ccc(OC)nc12`, the values for the 50% effective concentration (EC50) in test [1] and in test [4] were 1.1 nM and 31 nM, respectively. The Ki worked out at 0.4 nM in test [2] and 4 nM in test [3].

Turning to `CCNC(=O)NCCc1cccc2ccc(OC)nc12`, the concentration for a half-maximal effect (EC50) in test [1] came out at 0.2 nM; in test [4], 9.5 nM. Also, the inhibition constant Ki in test [2] is 0.09 nM; in test [3], 0.8 nM.

As for `COC(=O)NCCc1cccc2ncc(OC)cc12`, the inhibition constant (Ki) in test [2] is 430 nM; in test [3] it was greater than 10000 nM.

Regarding `COc1ccc2cccc(CCC(=O)NC3CC3)c2n1`, the inhibition constant (Ki) stood at 0.5 nM in test [2] and 34 nM in test [3]. In addition, the Ratio Ki in test [5] turned out to be 86.

In the case of `COc1cnc2cccc(CCNC(=O)C3CC3)c2c1`, the Ki in test [2] was determined as 26 nM; in test [3], 124 nM.

As to `COc1ccc2ccc(CCNC(C)=O)cc2n1`, the inhibition constant (Ki) was 22 nM in test [2] and 58 nM in test [3].

Take `COc1ccc2cccc(CCNC(C)=O)c2n1`: the figures for the EC50 in test [1] and in test [4] were 0.2 nM and 0.8 nM, respectively. Also, the inhibitory constant (Ki) in test [2] was 0.2 nM; in test [3] it was 0.3 nM.

As for `CNC(=O)CCc1cccc2ccc(OC)nc12`, the figures for the EC50 in test [1] and in test [4] were 0.7 nM and 65 nM, respectively. The results for the Ki in test [2] and in test [3] were 0.3 nM and 8 nM, respectively. Besides, the Ratio Ki in test [5] stood at 27.

On to `COc1cnc2cccc(CCNC(N)=O)c2c1`, for which the inhibitory constant (Ki) in test [2] is 40 nM; in test [3], 315 nM.

Consider `COc1ccc2cccc(CCNC(N)=O)c2n1`, for which the EC50 turned out to be 0.2 nM in test [1] and 1620 nM in test [4]. The Ki in test [2] came out at 0.2 nM; in test [3] it was 2 nM.

As to `CNC(=S)NCCc1cccc2ncc(OC)cc12`, the figures for the Ki in test [2] and in test [3] were 250 nM and greater than 10000 nM, respectively.

Regarding `COc1cnc2cccc(CCNC(C)=O)c2c1`, the values for the inhibitory constant (Ki) in test [2] and in test [3] were 4 nM and 60 nM, respectively.

For `CNC(=O)NCCc1cccc2ccc(OC)nc12`, the values for the concentration giving a half-maximal response (EC50) in test [1] and in test [4] were 0.09 nM and 19 nM, respectively. For the same molecule, the values for the inhibition constant (Ki) in test [2] and in test [3] were 0.09 nM and 0.6 nM, respectively.

For `CNC(=S)NCCc1cccc2ccc(OC)nc12`, the EC50 in test [1] turned out to be 0.1 nM; in test [4], 90 nM. Besides, the Ki was 0.1 nM in test [2] and 2 nM in test [3].

For the molecule `COc1ccc2cccc(CCC(=O)NCCF)c2n1`, the inhibition constant (Ki) in test [2] was determined as 0.3 nM; in test [3] it was 19 nM.

Regarding `CCNC(=S)NCCc1cccc2ncc(OC)cc12`, the inhibition constant Ki is 550 nM in test [2] and 690 nM in test [3].

Values taken from ChEMBL document CHEMBL3992543, “New quinolinic derivatives as melatonergic ligands: Synthesis and pharmacological evaluation” (Eur J Med Chem, 2017).
